{"source": "PubChem BioAssay (NCI)", "assay_in_all_cases": "inhibition of tumour cell growth, NCI panel, 48 h", "key": {"[1]": {"system": "LXFL 529 NSCLC"}, "[2]": {"system": "DMS 273 small cell lung"}, "[3]": {"system": "DMS 114 small cell lung"}, "[4]": {"system": "XF 498 CNS"}, "[5]": {"system": "RXF-631 renal"}, "[6]": {"system": "SNB-78 CNS"}}, "note": "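Interpolation was linear, between the two tested concentrations surrounding the appropriate level; five concentrations were tested over 48 hours in 96-well plates. The concentration for full growth arrest is given as TGI.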"}
{"smiles": "OC1CCSc2ccccc21", "note": "(centres undefined)", "values": [{"measurement": "TGI", "setting": "[1]", "result": "> 100", "unit": "µM"}, {"measurement": "TGI", "setting": "[2]", "result": "> 100", "unit": "µM"}, {"measurement": "TGI", "setting": "[3]", "result": "> 100", "unit": "µM"}, {"measurement": "TGI", "setting": "[4]", "result": "> 100", "unit": "µM"}]}
{"smiles": "C=C(CN(C)C)C(=O)c1ccccc1Cl", "values": [{"measurement": "TGI", "setting": "[1]", "result": 26, "unit": "µM"}, {"measurement": "TGI", "setting": "[2]", "result": 36.8, "unit": "µM"}, {"measurement": "TGI", "setting": "[3]", "result": 29.4, "unit": "µM"}, {"measurement": "TGI", "setting": "[5]", "result": 37.8, "unit": "µM"}, {"measurement": "TGI", "setting": "[6]", "result": 83.1, "unit": "µM"}]}
